Source: ChEMBL document CHEMBL1201862, “PubChem BioAssay data set” (2004)
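Dose response: 5 concentrations. Exposure: 48 h. Format: 96-well plates. Endpoint: linear interpolation; highest concentration if not reached. GI50 is the concentration that inhibits growth by half.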 Active and inactive are the calls of the source. No stated cut-off is given here; in the data, active = GI50 up to about 1.1 µM and inactive = higher.

Key:
Experiment in all cases: NCI-60 cell line screen, 48 h
786-0 = tested on: 786-0
CCRF-CEM = tested on: CCRF-CEM
DLD-1 = tested on: DLD-1
DMS-114 = tested on: DMS-114
EKVX = tested on: EKVX
HOP-92 = tested on: HOP-92
IGROV-1 = tested on: IGROV-1
LOX IMVI = tested on: LOX IMVI
M14 = tested on: M14
MOLT-4 = tested on: MOLT-4
NCI-H460 = tested on: NCI-H460
SF-268 = tested on: SF-268
SF-295 = tested on: SF-295
SN12C = tested on: SN12C
UACC-62 = tested on: UACC-62
HL-60 = tested on: HL-60
MDA-MB-435 = tested on: MDA-MB-435
RPMI-8226 = tested on: RPMI-8226
UACC-257 = tested on: UACC-257

Measured: GI50

Cn1nc(-c2ccccc2NC(=O)C(F)(F)F)c(=O)n(C)c1=S
inactive: 786-0 61.9 µM | CCRF-CEM 32.6 µM | DLD-1 > 100 µM | DMS-114 14 µM | EKVX 31.3 µM | HOP-92 15.2 µM | IGROV-1 63.2 µM | LOX IMVI 29.9 µM | M14 19.8 µM | MOLT-4 22.6 µM | NCI-H460 23.5 µM | SF-268 25.8 µM | SF-295 58.2 µM | SN12C 42.3 µM | UACC-62 > 10 µM

C[N+]1([O-])C2CCC1CC(OC(=O)C(CO)c1ccccc1)C2 (centres undefined)
inactive: 786-0 > 100 µM | CCRF-CEM > 100 µM | EKVX > 100 µM | HL-60 > 100 µM | HOP-92 > 63.2 µM | IGROV-1 > 100 µM | LOX IMVI > 100 µM | M14 > 100 µM | MDA-MB-435 > 100 µM | MOLT-4 > 100 µM | NCI-H460 > 100 µM | RPMI-8226 > 100 µM | SF-268 > 100 µM | SF-295 > 100 µM | SN12C > 81.7 µM | UACC-257 > 100 µM | UACC-62 > 100 µM

N=C(N)SC(c1ccccc1)c1ccccc1
inactive: 786-0 12.6 µM | CCRF-CEM 10.5 µM | EKVX 15 µM | HL-60 17.1 µM | HOP-92 6.87 µM | IGROV-1 18.5 µM | LOX IMVI 15.2 µM | M14 11.4 µM | MDA-MB-435 12.6 µM | MOLT-4 15.7 µM | NCI-H460 16.6 µM | RPMI-8226 10.2 µM | SF-268 22.6 µM | SF-295 16.9 µM | SN12C 16 µM | UACC-257 14.2 µM | UACC-62 16 µM

Cc1nc2ccccc2c(=O)n1NC(=O)c1ccccc1[N+](=O)[O-]
inactive: 786-0 > 100 µM | CCRF-CEM > 100 µM | EKVX 71.4 µM | HL-60 > 100 µM | HOP-92 > 100 µM | IGROV-1 > 100 µM | LOX IMVI > 100 µM | M14 > 100 µM | MDA-MB-435 > 100 µM | MOLT-4 > 100 µM | NCI-H460 > 100 µM | RPMI-8226 > 100 µM | SF-268 > 100 µM | SF-295 > 100 µM | SN12C > 100 µM | UACC-257 > 100 µM | UACC-62 > 100 µM

CC(NNC(=O)CC(=O)N(C(=O)c1ccccc1)c1ccc(Cl)cc1)c1cc2ccccc2oc1=O (centres undefined)
inactive: 786-0 > 10 µM | CCRF-CEM > 10 µM | EKVX > 10 µM | HL-60 > 10 µM | HOP-92 > 10 µM | IGROV-1 > 10 µM | LOX IMVI > 10 µM | M14 > 10 µM | MDA-MB-435 > 10 µM | MOLT-4 > 10 µM | NCI-H460 > 10 µM | RPMI-8226 > 10 µM | SF-268 > 10 µM | SF-295 > 10 µM | SN12C > 10 µM | UACC-257 > 10 µM | UACC-62 > 10 µM

O=c1c2cccnc2[nH]c2ccc3scnc3c12
inactive: 786-0 5.58 µM | CCRF-CEM 5.27 µM | EKVX > 10 µM | HL-60 4.86 µM | HOP-92 8.17 µM | IGROV-1 4.81 µM | LOX IMVI 3.36 µM | M14 8.07 µM | MDA-MB-435 9.82 µM | MOLT-4 4.34 µM | NCI-H460 7.01 µM | RPMI-8226 > 10 µM | SF-268 > 10 µM | SF-295 > 10 µM | SN12C 6.24 µM | UACC-257 > 10 µM | UACC-62 > 10 µM

COC(=O)c1c2c(cc3c1CC1(Cc4cc5c(c(C(C)=O)c4C1)CCC5)C3)CCC2 (centres undefined)
inactive: 786-0 42.4 µM | CCRF-CEM > 100 µM | DLD-1 > 100 µM | DMS-114 61.5 µM | HL-60 11.8 µM | HOP-92 22.3 µM | IGROV-1 72.8 µM | LOX IMVI 50.1 µM | M14 > 100 µM | MOLT-4 38.2 µM | NCI-H460 36.9 µM | SF-268 67.3 µM | SF-295 28.8 µM | SN12C 91.8 µM | UACC-257 34.9 µM | UACC-62 44.9 µM

COC(=O)C(/C(=N/N)C(=O)Nc1cc(Cl)c(Cl)cc1Cl)c1nc2ccc(Cl)cc2nc1O (centres undefined)
inactive: 786-0 > 100 µM | CCRF-CEM > 10 µM | EKVX 29.1 µM | HL-60 > 100 µM | HOP-92 > 100 µM | IGROV-1 45 µM | LOX IMVI > 100 µM | M14 > 100 µM | MDA-MB-435 > 100 µM | NCI-H460 > 100 µM | RPMI-8226 > 100 µM | SF-268 > 100 µM | SF-295 > 100 µM | SN12C > 100 µM | UACC-257 > 100 µM | UACC-62 > 100 µM
active: MOLT-4 0.0515 µM

C/C(=N/S(=O)(=O)c1ccc(Cl)c(Cl)c1)OCC(C)(C)C
inactive: 786-0 > 100 µM | CCRF-CEM > 100 µM | EKVX > 100 µM | HL-60 6.98 µM | HOP-92 > 100 µM | IGROV-1 > 100 µM | LOX IMVI > 100 µM | M14 > 100 µM | MDA-MB-435 > 100 µM | MOLT-4 > 100 µM | NCI-H460 > 100 µM | RPMI-8226 > 100 µM | SF-268 > 100 µM | SF-295 > 100 µM | SN12C > 100 µM | UACC-257 > 100 µM | UACC-62 > 100 µM

O=C1OCC(c2ccc(Cl)cc2)=C1Cl
active: IGROV-1 < 0.01 µM
inactive: 786-0 17.7 µM | CCRF-CEM 29.2 µM | EKVX 28.8 µM | HL-60 19.8 µM | HOP-92 31.9 µM | LOX IMVI 23.2 µM | M14 18.8 µM | MDA-MB-435 33.2 µM | MOLT-4 32.1 µM | NCI-H460 17.8 µM | RPMI-8226 23.8 µM | SF-268 21.1 µM | SF-295 39.9 µM | SN12C 26.7 µM | UACC-257 40 µM | UACC-62 18.7 µM

O=C1CCC2c3ccccc3NCN12 (centres undefined)
inactive: 786-0 > 100 µM | CCRF-CEM > 100 µM | EKVX > 100 µM | HL-60 > 100 µM | HOP-92 > 100 µM | IGROV-1 > 100 µM | LOX IMVI > 100 µM | M14 > 100 µM | MDA-MB-435 > 100 µM | MOLT-4 > 100 µM | NCI-H460 > 100 µM | RPMI-8226 > 100 µM | SF-268 > 100 µM | SF-295 > 100 µM | SN12C > 100 µM | UACC-257 > 100 µM | UACC-62 > 100 µM

CN(C)c1ccc(/C=C(\NC(=O)c2ccccc2)C(=O)Nc2cccc(C(=O)NCCCO)c2)cc1
inactive: 786-0 > 100 µM | CCRF-CEM > 100 µM | EKVX > 100 µM | HL-60 > 100 µM | HOP-92 > 100 µM | IGROV-1 > 100 µM | LOX IMVI > 100 µM | M14 > 100 µM | MDA-MB-435 > 100 µM | MOLT-4 > 100 µM | NCI-H460 > 100 µM | RPMI-8226 > 100 µM | SF-268 > 100 µM | SF-295 > 100 µM | SN12C > 100 µM | UACC-257 > 100 µM | UACC-62 > 100 µM

C/C=C/C(C#N)(/C=C/c1ccccc1)OP1(=O)OC(c2ccccc2)C(C)N1C (centres undefined)
inactive: 786-0 17.1 µM | CCRF-CEM 11 µM | EKVX 20.6 µM | HL-60 12.6 µM | HOP-92 14.6 µM | IGROV-1 16.4 µM | LOX IMVI 18.2 µM | M14 20 µM | MDA-MB-435 18.2 µM | MOLT-4 10.9 µM | NCI-H460 17.9 µM | RPMI-8226 15.2 µM | SF-268 19.6 µM | SF-295 16.3 µM | SN12C 19.2 µM | UACC-257 19.1 µM | UACC-62 17.7 µM

COc1ccc(-c2c(C#N)c(O)n(NS(=O)(=O)c3ccc(C)cc3)c(=O)c2C#N)cc1
inactive: 786-0 67.1 µM | CCRF-CEM 33.4 µM | EKVX 70.8 µM | HL-60 37.1 µM | HOP-92 4.71 µM | IGROV-1 35.8 µM | LOX IMVI 45.4 µM | M14 > 100 µM | MDA-MB-435 75 µM | MOLT-4 20.5 µM | NCI-H460 46.2 µM | RPMI-8226 19.5 µM | SF-268 > 100 µM | SF-295 75 µM | SN12C > 100 µM | UACC-257 > 100 µM | UACC-62 81.7 µM

O=C(c1ccco1)N1CCN(C(=O)c2ccco2)C1=S
inactive: 786-0 3.28 µM | CCRF-CEM 1.77 µM | EKVX 16.1 µM | HL-60 3.42 µM | HOP-92 7.23 µM | IGROV-1 9.64 µM | LOX IMVI 3.59 µM | M14 6.22 µM | MDA-MB-435 3.59 µM | MOLT-4 1.42 µM | NCI-H460 8.73 µM | RPMI-8226 2.02 µM | SF-268 6.01 µM | SF-295 18.5 µM | SN12C 4.18 µM | UACC-257 4.9 µM | UACC-62 6.34 µM

C[C@]12CC[C@@H]3c4ccc(OC(=O)c5ccccc5)cc4CC[C@H]3[C@@H]1CCC2OC(=O)c1cccc2c(=O)c3ccccc3[nH]c12 (some centres undefined)
inactive: 786-0 17.5 µM | CCRF-CEM 24.7 µM | EKVX 9.38 µM | HL-60 18.8 µM | HOP-92 18 µM | IGROV-1 16.5 µM | LOX IMVI 16.3 µM | M14 17.1 µM | MDA-MB-435 3.77 µM | MOLT-4 63 µM | NCI-H460 17.4 µM | RPMI-8226 29.9 µM | SF-268 22.8 µM | SF-295 18.2 µM | SN12C 14.4 µM | UACC-257 20.3 µM | UACC-62 13.3 µM
